Reference: PubChem BioAssay AID1745844 (Carcinogenic Potency Database (CPDB), 2022)
“And” between values parts separate entries of the source, which are not always exact repeats. Equal values may be shown once. The source made the active and inactive calls. How the calls were made is not given here.

System: rodent lifetime carcinogenesis bioassay, tumor incidence TD50
Experiment: chronic cancer bioassays in animals – CPDB, compiled studies (AID 1745844)
[1] = mouse, strain B6C3F1, females, by gavage, site: lung, lesion: alveolar/bronchiolar adenoma + alveolar/bronchiolar carcinoma, dosed 78 weeks, study length 90 weeks
[2] = mouse, strain B6C3F1, males, by gavage, site: any site (literature study), lesion: several types, types named in the paper, dosed 78 weeks, study length 90 weeks
[3] = mouse, strain B6C3F1, males, by gavage, site: liver, lesion: hepatocellular adenoma + hepatocellular carcinoma + neoplastic nodule, dosed 78 weeks, study length 90 weeks
[4] = mouse, strain B6C3F1, males, by gavage, site: lung, lesion: alveolar/bronchiolar adenoma + alveolar/bronchiolar carcinoma, dosed 78 weeks, study length 90 weeks

ClC(Cl)(Cl)C(Cl)(Cl)Cl
TD50 (mouse, strain B6C3F1, females, by gavage, site: any site (literature study), lesion: several types, types named in the paper, dosed 78 weeks, study length 90 weeks): 1190 mg/kg/day
TD50 (mouse, strain B6C3F1, females, by gavage, site: liver, lesion: hepatocellular adenoma + hepatocellular carcinoma + neoplastic nodule, dosed 78 weeks, study length 90 weeks): 873 mg/kg/day
TD50 (mouse, strain B6C3F1, females, by gavage, site: liver, lesion: hepatocellular carcinoma, dosed 78 weeks, study length 90 weeks): 873 mg/kg/day and 319 mg/kg/day
TD50 [1]: 6950 mg/kg/day
TD50 [2]: 675 mg/kg/day
TD50 [3]: 585 mg/kg/day
TD50 (mouse, strain B6C3F1, males, by gavage, site: liver, lesion: hepatocellular carcinoma, dosed 78 weeks, study length 90 weeks): 585 mg/kg/day and 359 mg/kg/day
TD50 [4]: 23600 mg/kg/day
carcinogen call (rat, strain Fischer 344, females, by gavage, site: any site (literature study), lesion: several types, types named in the paper, dosed 103 weeks, study length 105 weeks): negative (inactive)
TD50 (rat, strain Fischer 344, females, by gavage, site: liver, lesion: hepatocellular adenoma + hepatocellular carcinoma + neoplastic nodule, dosed 103 weeks, study length 105 weeks): 276000 mg/kg/day
TD50 (rat, strain Fischer 344, males, by gavage, site: adrenal gland + adrenal medulla, lesion: pheochromocytoma, benign + pheochromocytoma benign, bilateral + pheochromocytoma, complex + pheochromocytoma, malignant, dosed 103 weeks, study length 105 weeks): 8.02 mg/kg/day
TD50 (rat, strain Fischer 344, males, by gavage, site: adrenal gland + adrenal medulla, lesion: pheochromocytoma, benign + pheochromocytoma benign, bilateral, dosed 103 weeks, study length 105 weeks): 9.05 mg/kg/day
TD50 (rat, strain Fischer 344, males, by gavage, site: any site (literature study), lesion: several types, types named in the paper, dosed 103 weeks, study length 105 weeks): 28 mg/kg/day
TD50 (rat, strain Fischer 344, males, by gavage, site: kidney, lesion: adenoma + tubule adenoma + tubule carcinoma, dosed 103 weeks, study length 105 weeks): 55.4 mg/kg/day
TD50 (rat, strain Fischer 344, males, by gavage, site: kidney, lesion: tubule carcinoma, dosed 103 weeks, study length 105 weeks): 159 mg/kg/day
TD50 (rat, strain Fischer 344, males, by gavage, site: liver, lesion: hepatocellular adenoma + hepatocellular carcinoma + neoplastic nodule, dosed 103 weeks, study length 105 weeks): 1340 mg/kg/day
carcinogen call (rat, strain Osborne-Mendel, females, by gavage, site: any site (literature study), lesion: several types, types named in the paper, dosed 78 weeks, study length 111 weeks): negative (inactive)
carcinogen call (rat, strain Osborne-Mendel, males, by gavage, site: any site (literature study), lesion: several types, types named in the paper, dosed 78 weeks, study length 111 weeks): negative (inactive)

Nc1c(N=Nc2ccc([N+](=O)[O-])cc2)c(S(=O)(=O)O)cc2cc(S(=O)(=O)O)c(N=Nc3ccccc3)c(O)c12
carcinogen call (rat, strain Not specified, females, in feed, site: any site (literature study), lesion: several types, types named in the paper, dosed 64 weeks, study length 64 weeks): negative (inactive)
carcinogen call (rat, strain Not specified, females, in feed, site: liver, lesion: one or several types, types not named, dosed 64 weeks, study length 64 weeks): negative (inactive)
carcinogen call (rat, strain Not specified, males, in feed, site: any site (literature study), lesion: several types, types named in the paper, dosed 64 weeks, study length 64 weeks): negative (inactive)
carcinogen call (rat, strain Not specified, males, in feed, site: liver, lesion: one or several types, types not named, dosed 64 weeks, study length 64 weeks): negative (inactive)

COc1cccc(O)c1O
TD50 (rat, strain F344/DuCrj, males, in feed, site: forestomach, lesion: squamous-cell papilloma, dosed 51 weeks, study length 51 weeks): 425 mg/kg/day
TD50 (rat, strain F344/DuCrj, males, in feed, site: stomach, glandular, lesion: adenoma, dosed 51 weeks, study length 51 weeks): 48.7 mg/kg/day

CC(Cl)(Cl)Cl
TD50 [1]: 260000 mg/kg/day
carcinogen call (mouse, strain B6C3F1, females, inhaled, site: liver, lesion: hepatocellular adenoma, dosed 104 weeks, study length 104 weeks): negative (inactive)
carcinogen call (mouse, strain B6C3F1, females, inhaled, site: liver, lesion: hepatocellular carcinoma, dosed 104 weeks, study length 104 weeks): negative (inactive)
carcinogen call (mouse, strain B6C3F1, females, inhaled, site: liver, lesion: several types, types named in the paper, dosed 104 weeks, study length 104 weeks): negative (inactive)
TD50 [2]: 30500 mg/kg/day
TD50 [3]: 39700 mg/kg/day
TD50 [4]: 5.08e+06 mg/kg/day
carcinogen call (mouse, strain B6C3F1, males, inhaled, site: liver, lesion: hepatocellular adenoma, dosed 104 weeks, study length 104 weeks): negative (inactive)
TD50 (mouse, strain B6C3F1, males, inhaled, site: liver, lesion: hepatocellular carcinoma, dosed 104 weeks, study length 104 weeks): 66300 mg/kg/day (inactive)
carcinogen call (mouse, strain B6C3F1, males, inhaled, site: liver, lesion: several types, types named in the paper, dosed 104 weeks, study length 104 weeks): negative (inactive)
carcinogen call (rat, strain Fischer 344, females, inhaled, site: liver, lesion: hepatocellular carcinoma, dosed 104 weeks, study length 104 weeks): negative (inactive)
carcinogen call (rat, strain Fischer 344, females, inhaled, site: liver, lesion: neoplastic nodule, dosed 104 weeks, study length 104 weeks): negative (inactive)
TD50 (rat, strain Fischer 344, males, inhaled, site: liver, lesion: hepatocellular carcinoma, dosed 104 weeks, study length 104 weeks): 2070 mg/kg/day (inactive)
TD50 (rat, strain Fischer 344, males, inhaled, site: liver, lesion: neoplastic nodule, dosed 104 weeks, study length 104 weeks): 5120 mg/kg/day (inactive)
TD50 (rat, strain Osborne-Mendel, females, by gavage, site: any site (literature study), lesion: several types, types named in the paper, dosed 78 weeks, study length 112 weeks): 226 mg/kg/day
TD50 (rat, strain Osborne-Mendel, males, by gavage, site: any site (literature study), lesion: several types, types named in the paper, dosed 78 weeks, study length 106 weeks): 950 mg/kg/day

O=C([O-])c1cc(N=Nc2ccc(-c3ccc(N=Nc4c(O)ccc(N=Nc5cc(S(=O)(=O)[O-])ccc5[O-])c4[O-])cc3)cc2)ccc1O.[Cu+2].[Na+].[Na+]
TD50 (rat, strain Fischer 344, females, in feed, site: any site (literature study), lesion: several types, types named in the paper, dosed 13 weeks, study length 13 weeks): 2.07 mg/kg/day
TD50 (rat, strain Fischer 344, females, in feed, site: liver, lesion: hepatocellular adenoma + hepatocellular carcinoma + neoplastic nodule, dosed 13 weeks, study length 13 weeks): 2.07 mg/kg/day
TD50 (rat, strain Fischer 344, females, in feed, site: liver, lesion: hepatocellular carcinoma + neoplastic nodule, dosed 13 weeks, study length 13 weeks): 2.07 mg/kg/day
carcinogen call (rat, strain Fischer 344, males, in feed, site: any site (literature study), lesion: several types, types named in the paper, dosed 13 weeks, study length 13 weeks): negative (inactive)

CN(C)C(=O)Nc1cccc(C(F)(F)F)c1
TD50 (mouse, strain B6C3F1, females, in feed, site: any site (literature study), lesion: several types, types named in the paper, dosed 103 weeks, study length 103 weeks): 369 mg/kg/day (inactive)
TD50 (mouse, strain B6C3F1, females, in feed, site: liver, lesion: hepatocellular adenoma + hepatocellular carcinoma + neoplastic nodule, dosed 103 weeks, study length 103 weeks): 1230 mg/kg/day
TD50 (mouse, strain B6C3F1, males, in feed, site: any site (literature study), lesion: several types, types named in the paper, dosed 103 weeks, study length 103 weeks): 265 mg/kg/day
TD50 (mouse, strain B6C3F1, males, in feed, site: liver, lesion: hepatocellular adenoma + hepatocellular carcinoma + neoplastic nodule, dosed 103 weeks, study length 103 weeks): 229 mg/kg/day
TD50 (mouse, strain B6C3F1, males, in feed, site: liver, lesion: hepatocellular adenoma + hepatocellular carcinoma, dosed 103 weeks, study length 103 weeks): 229 mg/kg/day
TD50 (mouse, strain B6C3F1, males, in feed, site: lung, lesion: alveolar/bronchiolar adenoma + alveolar/bronchiolar carcinoma, dosed 103 weeks, study length 103 weeks): 1420 mg/kg/day
carcinogen call (rat, strain Fischer 344, females, in feed, site: any site (literature study), lesion: several types, types named in the paper, dosed 103 weeks, study length 104 weeks): negative (inactive)
TD50 (rat, strain Fischer 344, males, in feed, site: liver, lesion: hepatocellular adenoma + hepatocellular carcinoma + neoplastic nodule, dosed 103 weeks, study length 104 weeks): 55.4 mg/kg/day
TD50 (rat, strain Fischer 344, males, in feed, site: liver, lesion: neoplastic nodule, dosed 103 weeks, study length 104 weeks): 55.4 mg/kg/day (inactive)

CCCCNN
TD50 (mouse, strain Swiss albino, females, in drinking water, site: lung, lesion: adenocarcinoma, dosed 119 weeks, study length 119 weeks): 50.6 mg/kg/day
TD50 (mouse, strain Swiss albino, females, in drinking water, site: lung, lesion: adenoma, dosed 119 weeks, study length 119 weeks): 19.3 mg/kg/day
TD50 (mouse, strain Swiss albino, females, in drinking water, site: lung, lesion: several types, types named in the paper, dosed 119 weeks, study length 119 weeks): 18.4 mg/kg/day
TD50 (mouse, strain Swiss albino, males, in drinking water, site: lung, lesion: adenoma, dosed 100 weeks, study length 100 weeks): 8.4 mg/kg/day
TD50 (mouse, strain Swiss albino, males, in drinking water, site: lung, lesion: several types, types named in the paper, dosed 100 weeks, study length 100 weeks): 9.03 mg/kg/day

CCCNN
TD50 (mouse, strain Swiss albino, females, in drinking water, site: lung, lesion: adenocarcinoma, dosed 99 weeks, study length 99 weeks): 109 mg/kg/day
TD50 (mouse, strain Swiss albino, females, in drinking water, site: lung, lesion: adenoma, dosed 99 weeks, study length 99 weeks): 42.7 mg/kg/day
TD50 (mouse, strain Swiss albino, females, in drinking water, site: lung, lesion: several types, types named in the paper, dosed 99 weeks, study length 99 weeks): 41.4 mg/kg/day
TD50 (mouse, strain Swiss albino, males, in drinking water, site: liver, lesion: liver-cell carcinoma, dosed 93 weeks, study length 93 weeks): 102 mg/kg/day (inactive)
TD50 (mouse, strain Swiss albino, males, in drinking water, site: liver, lesion: several types, types named in the paper, dosed 93 weeks, study length 93 weeks): 80.8 mg/kg/day
TD50 (mouse, strain Swiss albino, males, in drinking water, site: lung, lesion: adenoma, dosed 93 weeks, study length 93 weeks): 41.3 mg/kg/day
TD50 (mouse, strain Swiss albino, males, in drinking water, site: lung, lesion: several types, types named in the paper, dosed 93 weeks, study length 93 weeks): 50.5 mg/kg/day
